Measured values: patent US11312702B2, “Substituted quinoline-8-carbonitrile derivatives having androgen receptor degradation activity and uses thereof” (ACCUTAR BIOTECHNOLOGY INC., priority 2019, dated 2022)

Key:
Format in all cases: cell-based
[1] = biological target: T1, androgen receptor (AR) (Homo sapiens, UniProt P10275, T878A); experiment: AR degradation activity in LNCAP cells (Western blot); details: LNCAP cell line, 24 hours after administration; DC50 = concentration for 50% target protein degradation
T1 construct: endogenous in cells; host or cells: LNCAP
T1 sequence (P10275 1-920 T878A): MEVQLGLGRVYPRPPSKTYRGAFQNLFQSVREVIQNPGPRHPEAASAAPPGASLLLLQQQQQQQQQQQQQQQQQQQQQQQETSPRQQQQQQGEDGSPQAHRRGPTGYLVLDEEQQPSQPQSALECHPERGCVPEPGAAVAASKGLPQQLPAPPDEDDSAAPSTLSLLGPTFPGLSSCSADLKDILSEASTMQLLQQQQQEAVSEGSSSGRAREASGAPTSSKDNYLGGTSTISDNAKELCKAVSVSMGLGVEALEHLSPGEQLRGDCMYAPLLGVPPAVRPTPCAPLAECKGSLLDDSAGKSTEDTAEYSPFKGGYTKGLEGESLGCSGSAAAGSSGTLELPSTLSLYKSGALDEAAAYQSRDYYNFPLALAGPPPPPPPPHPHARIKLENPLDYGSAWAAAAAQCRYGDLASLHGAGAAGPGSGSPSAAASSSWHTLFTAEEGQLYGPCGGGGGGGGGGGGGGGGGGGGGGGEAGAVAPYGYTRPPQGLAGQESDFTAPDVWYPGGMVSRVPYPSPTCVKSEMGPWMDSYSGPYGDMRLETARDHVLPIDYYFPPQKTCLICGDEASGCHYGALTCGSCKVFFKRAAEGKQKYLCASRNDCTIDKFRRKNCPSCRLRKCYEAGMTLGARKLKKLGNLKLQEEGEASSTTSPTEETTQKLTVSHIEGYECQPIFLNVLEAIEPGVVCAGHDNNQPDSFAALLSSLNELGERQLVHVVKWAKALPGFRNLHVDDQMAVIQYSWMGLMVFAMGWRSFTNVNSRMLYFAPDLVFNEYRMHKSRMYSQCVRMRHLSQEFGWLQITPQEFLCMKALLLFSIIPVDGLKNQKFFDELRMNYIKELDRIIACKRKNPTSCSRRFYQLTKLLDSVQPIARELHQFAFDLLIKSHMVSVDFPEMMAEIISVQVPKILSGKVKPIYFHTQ
Protocol: LNCAP, VCAP and 22Rv1 cells were plated in 24-well plates at 1.5×10E5 cells/well in the RPMI growth medium containing 10% FBS and 1% Penicillin Streptomycin, and then incubated at 37° C. overnight. The following day, the test compound was administered to the cells by using 1000× compound stock solution prepared in DMSO at various concentrations. After administration of the compound, the cells were then incubated at 37° C. for 24 hours. Upon completion, the cells were washed with PBS and protein was collected in Laemmli sample buffer (1×; VWR International). Proteins in cell lysate were separated by SDS-PAGE and transferred to Odyssey nitrocellulose membranes (Licor) with iblot® dry blotting transfer system (ThermoFisher). Nonspecific binding was blocked by incubating membranes with Intercept Blocking Buffer (Licor) for 1 hour at room temperature with gentle shaking. The membranes were then incubated overnight at 4° C. with Primary antibodies rabbit anti-AR (1:1,000, Cell Signaling, 5153) and mouse anti-GAPDH (1:5,000, Santa Cruz Biotechnology, sc-47724) diluted in Intercept Blocking Buffer containing 0.1% Tween 20. After washing 3 times with TBS-T, the membranes were incubated with IRDye® […] goat anti-mouse IgG (1:20,000, Licor) or IRDye®8000W goat anti-rabbit IgG (1:20,000, Licor) for 1 hour. After TBS-T washes, membranes were rinsed in TBS and scanned on Odyssey® CLx Imaging System (Licor). The bands were quantified using Image Studio™ Software (Licor).
(§1) Table 4 summarizes the androgen receptor (AR) degradative activity and cell growth inhibition of exemplary compounds in (a) LNCAP, VCAP, and 22Rv1 cell lines 24 hours after administration of the compound; (b) RAMOS cell line 3 days after administration of the compound; and (c) VCAP cell line 6 days after administration of the compound. DC50: compound concentration needed for 50% target protein degradation.

[2] = test system: VCAP cells; experiment: Cell growth inhibition for VCAP cells (CellTiter-Glo); details: Homo sapiens, 144 h; VCAP cell line, 6 days after administration, 0.1 nM R1881, charcoal-stripped FBS
Protocol: VCAP cells (ATCC) were seeded in 96-well plates at 3000 cell/well in 80 μl of DMEM growth medium containing 10% charcoal-stripped FBS (CSS) and 1% Penicillin/Streptomycin. Cells were incubated at 37° C. overnight. The following day, the test compound was administered to the cells by using 10× compound stock solution prepared in growth medium at various concentrations. Four hours later, 0.1 nM R1881 (Sigma) was administered to the cells by using 10× compound stock solution prepared in growth medium. 0.1% DMSO with or without 0.1 nM R1881 was administered as control. Cells were then incubated at 37° C. for 6 days. Before CelTiter-Glo assay, the plates were equilibrated at room temperature for approximately 10 minutes. 100 ul of CellTiter-Glo® Reagent (Promega) was added to each well. The plates were then incubated at room temperature for 10 minutes and luminescence was recorded by EnSpire plate reader (PerkinElmer).
as §1

[3] = test system: RAMOS cells; experiment: Cell growth inhibition for Ramos cells (CellTiter-Glo); details: Homo sapiens, 72 h; RAMOS cell line, 3 days after administration
Protocol: RAMOS cells (ATCC) were seeded in 96-well plates at 16,000 cell/well in 90 μl of RPMI growth medium containing 10% Heat-Inactivated Fetal Bovine Serum and 1% Penicillin/Streptomycin. The test compound was administered to the cells by using 10× compound stock solution prepared in growth medium at various concentrations. After administration of the compound, cells were then incubated at 37° C. for 3 days. Before CellTiter-Glo assay, the plates were equilibrated at room temperature for approximately 10 minutes. 100 ul of CellTiter-Glo® Reagent (Promega) was added to each well. The plates were then incubated at room temperature for 10 minutes and luminescence was recorded by EnSpire plate reader (PerkinElmer).
as §1

## CC1(C)C(NC(=O)c2cnc(N3CCC(CN4CCN(c5cc6c(cc5F)C(=O)N(C5CCC(=O)NC5=O)C6=O)CC4)CC3)nc2)C(C)(C)C1Oc1ccc(C#N)c2ncccc12 (stereo not drawn) [Compound 2-50, N-((1,3-trans)-3-((8-cyanoquinolin-5-yl)oxy)-2,2,4,4-tetramethylcyclobutyl)-2-(4-((4-(2-(2,6-dioxopiperidin-3-yl)-6-fluoro-1,3-dioxoisoindolin-5-yl)piperazin-1-yl)methyl)piperidin-1-yl)pyrimidine-5-carboxamide]
[1]
  DC50: 0.6 nM

## CC1(C)[C@H](NC(=O)c2cnc(N3CCC(CN4CCN(c5ccc6c(c5)CN([C@H]5CCC(=O)NC5=O)C6=O)CC4)CC3)nc2)C(C)(C)[C@H]1Oc1ccc(C#N)c2ncccc12 [Compound 2-30]
[2]
  GI50: 11.5 nM
[3]
  GI50: > 3000 nM
[1]
  DC50: 0.2 nM

## CC1(C)[C@H](NC(=O)c2ccc(N3CCC(CN4CCN(c5ccc6c(c5)CN(C5CCC(=O)NC5=O)C6=O)CC4)CC3)c(F)c2)C(C)(C)[C@H]1Oc1ccc(C#N)c2ncccc12 (stereo partly shown) [Compound 2-51, N-((1r,3r)-3-((8-cyanoquinolin-5-yl)oxy)-2,2,4,4-tetramethylcyclobutyl)-4-(4-((4-(2-(2,6-dioxopiperidin-3-yl)-1-oxoisoindolin-5-yl)piperazin-1-yl)methyl)piperidin-1-yl)-3-fluorobenzamide]
[2]
  GI50: 11 nM
[3]
  GI50: > 3000 nM
[1]
  DC50: 0.5 nM

## CC1(C)C(NC(=O)c2ccc(N3CCC(CN4CCN(c5ccc6c(c5)CN([C@H]5CCC(=O)NC5=O)C6=O)CC4)CC3)nn2)C(C)(C)C1Oc1ccc(C#N)c2ncccc12 (stereo partly drawn) [Compound 2-31, N-((1,3-trans)-3-((8-cyanoquinolin-5-yl)oxy)-2,2,4,4-tetramethylcyclobutyl)-6-(4-((4-(2-((S)-2,6-dioxopiperidin-3-yl)-1-oxoisoindolin-5-yl)piperazin-1-yl)methyl)piperidin-1-yl)pyridazine-3-carboxamide]
[2]
  GI50: 9.2 nM
[3]
  GI50: > 3000 nM
[1]
  DC50: 0.6 nM

## CC(C)N(CC1CCN(c2ccc(C(=O)NC3C(C)(C)C(Oc4ccc(C#N)c5ncccc45)C3(C)C)cn2)CC1)C1CC(Oc2ccc3c(c2)C(=O)N(C2CCC(=O)NC2=O)C3=O)C1 (stereo not drawn) [Compound 2-11, N-((1,3-trans)-3-((8-cyanoquinolin-5-yl)oxy)-2,2,4,4-tetramethylcyclobutyl)-6-(4-((((1r,3r)-3-((2-(2,6-dioxopiperidin-3-yl)-1,3-dioxoisoindolin-5-yl)oxy)cyclobutyl)(isopropyl)amino)methyl)piperidin-1-yl)nicotinamide]
[1]
  DC50: 2.8 nM

## CC1(C)C(NC(=O)c2ccc(N3CCC(CN4CCN(c5cc6c(cc5F)C(=O)N(C5CCC(=O)NC5=O)C6=O)CC4)CC3)nc2)C(C)(C)C1Oc1ccc(C#N)c2ncccc12 (stereo not drawn) [Compound 2-36, N-((1,3-trans)-3-((8-cyanoquinolin-5-yl)oxy)-2,2,4,4-tetramethylcyclobutyl)-6-(4-((4-(2-(2,6-dioxopiperidin-3-yl)-6-fluoro-1,3-dioxoisoindolin-5-yl)piperazin-1-yl)methyl)piperidin-1-yl)nicotinamide]
[1]
  DC50: 1.4 nM

## CC1(C)[C@H](NC(=O)c2ccc(N3CCC(CN4CCN(c5cc6c(cc5F)C(=O)N([C@H]5CCC(=O)NC5=O)C6)CC4)CC3)c(F)c2)C(C)(C)[C@H]1Oc1ccc(C#N)c2ncccc12 [Compound 2-53, N-((1,3-trans)-3-((8-cyanoquinolin-5-yl)oxy)-2,2,4,4-tetramethylcyclobutyl)-4-(4-((4-(2-((S)-2,6-dioxopiperidin-3-yl)-6-fluoro-1-oxoisoindolin-5-yl)piperazin-1-yl)methyl)piperidin-1-yl)-3-fluorobenzamide]
[2]
  GI50: 11.9 nM
[1]
  DC50: 0.4 nM

## CN(CC1CCN(c2ccc(C(=O)NC3C(C)(C)C(Oc4ccc(C#N)c5ncccc45)C3(C)C)cn2)CC1)C1CC(Oc2ccc3c(c2)C(=O)N(C2CCC(=O)NC2=O)C3=O)C1 (stereo not drawn) [Compound 2-9, N-((1,3-trans)-3-((8-cyanoquinolin-5-yl)oxy)-2,2,4,4-tetramethylcyclobutyl)-6-(4-((((1r,3r)-3-((2-(2,6-dioxopiperidin-3-yl)-1,3-dioxoisoindolin-5-yl)oxy)cyclobutyl)(methyl)amino)methyl)piperidin-1-yl)nicotinamide]
[1]
  DC50: 0.2 nM

## CC1(C)C(NC(=O)c2ccc(N3CCC(CN4CCN(c5cc6c(cc5F)C(=O)N(C5CCC(=O)NC5=O)C6=O)CC4)CC3)cc2)C(C)(C)C1Oc1ccc(C#N)c2ncccc12 (stereo not drawn) [Compound 2-47, N-((1,3-trans)-3-((8-cyanoquinolin-5-yl)oxy)-2,2,4,4-tetramethylcyclobutyl)-4-(4-((4-(2-(2,6-dioxopiperidin-3-yl)-6-fluoro-1,3-dioxoisoindolin-5-yl)piperazin-1-yl)methyl)piperidin-1-yl)benzamide]
[1]
  DC50: 0.8 nM

## CC1(C)C(NC(=O)c2ccc(N3CCC(CN4CCN(c5cc6c(cc5F)C(=O)N(C5CCC(=O)NC5=O)C6=O)CC4)CC3)c(F)c2)C(C)(C)C1Oc1ccc(C#N)c2ncccc12 (stereo not drawn) [Compound 2-48, N-((1,3-trans))-3-((8-cyanoquinolin-5-yl)oxy)-2,2,4,4-tetramethylcyclobutyl)-4-(4-((4-(2-(2,6-dioxopiperidin-3-yl)-6-fluoro-1,3-dioxoisoindolin-5-yl)piperazin-1-yl)methyl)piperidin-1-yl)-3-fluorobenzamide]
[1]
  DC50: 3.8 nM

## CC1(C)C(NC(=O)c2ccc(N3CCC(CN4CCN(c5cc6c(cc5F)C(=O)N(C5CCC(=O)NC5=O)C6=O)CC4)CC3)nn2)C(C)(C)C1Oc1ccc(C#N)c2ncccc12 (stereo not drawn) [Compound 2-35, N-((1,3-trans)-3-((8-cyanoquinolin-5-yl)oxy)-2,2,4,4-tetramethylcyclobutyl)-6-(4-((4-(2-(2,6-dioxopiperidin-3-yl)-6-fluoro-1,3-dioxoisoindolin-5-yl)piperazin-1-yl)methyl)piperidin-1-yl)pyridazine-3-carboxamide]
[1]
  DC50: 0.4 nM

## CC1(C)C(NC(=O)c2cnc(N3CCC(CN4CCN(c5cc6c(cc5F)C(=O)N(C5CCC(=O)NC5=O)C6=O)CC4)CC3)c(F)c2)C(C)(C)C1Oc1ccc(C#N)c2ncccc12 (stereo not drawn) [Compound 2-52, N-((1,3-trans)-3-((8-cyanoquinolin-5-yl)oxy)-2,2,4,4-tetramethylcyclobutyl)-6-(4-((4-(2-(2,6-dioxopiperidin-3-yl)-6-fluoro-1,3-dioxoisoindolin-5-yl)piperazin-1-yl)methyl)piperidin-1-yl)-5-fluoronicotinamide]
[1]
  DC50: 1.3 nM
